Results from PMC5126104, “Identification of a Chemoreceptor in Pseudomonas aeruginosa That Specifically Mediates Chemotaxis Toward α-Ketoglutarate” (Frontiers in Microbiology, 2016).

What follows are molecules tested against T1, McpK (PA5072) chemoreceptor ligand binding domain (Pseudomonas aeruginosa, UniProt Q9HUB1) (assay: not given). Settings: binder.
T1 construct: McpK-LBD, Arg38–Ser293
Parameters: thermal shift assay with SYPRO Orange, Tm change of recombinant McpK-LBD
Description: Thermal shift assays were performed using a BioRad MyIQ2 Real-Time PCR instrument. Ligands were prepared by dissolving Biolog Phenotype Microarray compounds in 50 μl of MilliQ water to obtain a final concentration of around 10–20 mM (as indicated by the manufacturer). Screening was performed with plates PM1, PM2A, PM3B, PM4A, and PM5. Each plate contains 95 compounds and a control (Supplementary Figure S1). Each 25 μl assay mixture contained 40 μM protein in 5 mM Tris, 5 mM Pipes, 5 mM Mes, pH8.0 and SYPRO orange (Life Technologies) at 5x concentration. Aliquots of 2.5 μl of the resuspended Biolog compounds were added to each well. Samples were heated from 23°C to 85°C at a scan rate of 1°C/min. The protein unfolding curves were monitored by detecting changes in SYPRO Orange fluorescence. Melting temperatures were determined using the first derivative values from the raw fluorescence data. […] Ligands tested included different bacterial carbon-, nitrogen-, phosphorous-, and sulfur sources as well as to nutrient supplements, which are listed in Supplementary Figure S1. A total of 13 compounds were identified that increased or decreased the Tm by at least 2°C (Supplementary Table S2), which is the generally accepted threshold for a relevant ligand-induced change in protein stability.

Molecule	Tm Shift (°C)
O=C(O)CCC(=O)O [Succinate]	-0.3 °C
N[C@@H](CCC(=O)O)C(=O)O [L-Glutamic acid]	+2.3 °C
NC(=O)OP(=O)(O)O [Carbamyl phosphate]	+3.5 °C
O=C(O)[C@H]1OC(O)[C@H](O)[C@@H](O)[C@H]1O (stereo partly drawn) [D-Galacturonic acid]	+2.3 °C
NCCCC(=O)O [γ-Aminobutyric acid]	+4.1 °C
O=C(O)CC(O)(CC(=O)O)C(=O)O [Citrate]	+0.8 °C
NC(=O)CC[C@H](N)C(=O)O [L-Glutamine]	+2.2 °C
CC(O)C(=O)O (stereo not drawn) [Lactate]	+0.2 °C
O=C(O)/C=C/C(=O)O [Fumarate]	+0.3 °C
O=C(O)CC(CC(=O)O)C(=O)O [Tricarballylate]	+0.3 °C
N[C@@H](C(=O)O)[C@@H](O)[C@H](O)[C@H](O)CO [D-Glucosaminic acid]	+3.5 °C
O=c1cc[nH]c(=O)[nH]1 [Uracil]	+4.2 °C
O=C(O)CC(=O)C(=O)O [Oxaloacetate]	+0 °C
O=C(O)CC(O)C(=O)O (stereo not drawn) [Malate]	+0.5 °C
O=C1O[C@@H]([C@H](O)CO)[C@H](O)[C@H]1O [D-Galactonic acid-γ-lactone]	+2 °C
CCCC(=O)O [Butyrate]	+0.7 °C
COC(=O)C(C)=O [Methyl pyruvate]	+3.3 °C
C=C(CC(=O)O)C(=O)O [Itaconate]	-2.2 °C
CC(=O)C(=O)O [Pyruvate]	+0.1 °C
NCCCCC(=O)O [5-Aminovaleric acid]	+3.9 °C
NCCc1ccccc1 [Phenylethylamine]	+3.5 °C
CC(=O)O [Acetate]	-0.2 °C
O=C(O)CCC(=O)C(=O)O [α-ketoglutarate]	+5.2 °C

What follows are molecules tested against T1, McpK (PA5072) chemoreceptor ligand binding domain (assay: ITC (two symmetric-site cooperative model; Kd1 =[…], Kd2 =[…]); supported by thermal shift (+[…]°C) and AUC dimer stabilization). Settings: not given.

Molecule	Kd
O=C(O)CCC(=O)C(=O)O [α-ketoglutarate]	80.9 µM

Molecular target: the molecule itself
Experiment: AUC; sedimentation equilibrium, multi-speed, ligand-free McpK-LBD at 40, 50 and 60 uM, 7 °C, dialysis buffer (5 mM Tris, 5 mM PIPES, 5 mM MES, pH 8.0); global fit in SEDPHAT; dimer to monomers
Settings: not given

Molecule	Kd
McpK ligand binding domain (McpK-LBD) (domain or fragment, Pseudomonas aeruginosa PAO1, UniProt Q9HUB1 38-293, looked up, No removal of the tag is described; In monomer-dimer equilibrium by AUC; also called PA5072-LBD; source: E. coli BL21 (DE3), pET28-McpK-LBD, purified (HisTrap column)) RTLTHQTALSEQLAEVASLMEQTQQAEQGRLAFEAGSDPRQAEQVRQTLAGMLQRLQALRDSELDPAALAHQVEAIEAYRKAFDDLAAADQQRSAARGVLVGTAQQALDSFARLEELMDASLAQQAGDPQALQRSRAVADLHQQLLMVRYQVRGYVFERSDKAEQAAFAAFDALRQAATTLRGQLPGEADAALEQAMGSLQGYRGGIEQFRAGVIRTRQAQQAMQSSTQDMARAGRTLTEAGRQLRESTASRDRAS	55 µM

Molecular target: the molecule itself
Experiment: AUC; sedimentation velocity, McpK-LBD (10-50 uM) with 1 mM alpha-ketoglutarate, 7 °C, 5 mM Tris, 5 mM PIPES, 5 mM MES, pH 8.0; c(s) analysis in SEDFIT
Settings: not given

Molecule	stoichiometry N
McpK ligand binding domain (McpK-LBD) (domain or fragment, Pseudomonas aeruginosa PAO1, UniProt Q9HUB1 38-293, looked up, No removal of the tag is described; In monomer-dimer equilibrium by AUC; also called PA5072-LBD; source: E. coli BL21 (DE3), pET28-McpK-LBD, purified (HisTrap column)) RTLTHQTALSEQLAEVASLMEQTQQAEQGRLAFEAGSDPRQAEQVRQTLAGMLQRLQALRDSELDPAALAHQVEAIEAYRKAFDDLAAADQQRSAARGVLVGTAQQALDSFARLEELMDASLAQQAGDPQALQRSRAVADLHQQLLMVRYQVRGYVFERSDKAEQAAFAAFDALRQAATTLRGQLPGEADAALEQAMGSLQGYRGGIEQFRAGVIRTRQAQQAMQSSTQDMARAGRTLTEAGRQLRESTASRDRAS	2

Molecular target: the molecule itself
Experiment: AUC; sedimentation equilibrium, multi-speed, McpK-LBD at 40, 50 and 60 uM with 1 mM alpha-ketoglutarate, 7 °C, dialysis buffer (5 mM Tris, 5 mM PIPES, 5 mM MES, pH 8.0); global fit in SEDPHAT; dimer to monomers
Settings: not given

Molecule	Kd
McpK ligand binding domain (McpK-LBD) (domain or fragment, Pseudomonas aeruginosa PAO1, UniProt Q9HUB1 38-293, looked up, No removal of the tag is described; In monomer-dimer equilibrium by AUC; also called PA5072-LBD; source: E. coli BL21 (DE3), pET28-McpK-LBD, purified (HisTrap column)) RTLTHQTALSEQLAEVASLMEQTQQAEQGRLAFEAGSDPRQAEQVRQTLAGMLQRLQALRDSELDPAALAHQVEAIEAYRKAFDDLAAADQQRSAARGVLVGTAQQALDSFARLEELMDASLAQQAGDPQALQRSRAVADLHQQLLMVRYQVRGYVFERSDKAEQAAFAAFDALRQAATTLRGQLPGEADAALEQAMGSLQGYRGGIEQFRAGVIRTRQAQQAMQSSTQDMARAGRTLTEAGRQLRESTASRDRAS	5.9 µM
